ChEMBL document CHEMBL1201862, “PubChem BioAssay data set” (2004)
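Exposure lasted 48 hours, with cells grown in 96-well plates and compounds tested at five concentrations. GI50 is the concentration that inhibits growth by half.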 The source made the active and inactive calls. No stated cut-off is given here; in the data, active = GI50 up to about 1.1 µM and inactive = higher.

Key:
Assay in all cases: NCI anticancer screen, dose series, 48 h
SNB-78 = test system: SNB-78
OVCAR-8 = test system: OVCAR-8
OVCAR-4 = test system: OVCAR-4
DLD-1 = test system: DLD-1
DMS-273 = test system: DMS-273
SNB-75 = test system: SNB-75
SW-620 = test system: SW-620
UO-31 = test system: UO-31
EKVX = test system: EKVX
HCT-116 = test system: HCT-116
M14 = test system: M14
M19-MEL = test system: M19-MEL
TK-10 = test system: TK-10
UACC-62 = test system: UACC-62
SK-MEL-28 = test system: SK-MEL-28
HOP-62 = test system: HOP-62
COLO 205 = test system: COLO 205
IGROV-1 = test system: IGROV-1
A549 = test system: A549
OVCAR-3 = test system: OVCAR-3
HT-29 = test system: HT-29
MOLT-4 = test system: MOLT-4
XF498 = test system: XF498
KM-20L2 = test system: KM-20L2
LOX IMVI = test system: LOX IMVI
HCC 2998 = test system: HCC 2998
SK-MEL-2 = test system: SK-MEL-2
NCI-H522 = test system: NCI-H522
HOP-18 = test system: HOP-18
LXFL 529 = test system: LXFL 529
CAKI-1 = test system: CAKI-1
SF-539 = test system: SF-539
SK-MEL-5 = test system: SK-MEL-5
NCI-H460 = test system: NCI-H460
SF-268 = test system: SF-268
NCI-H23 = test system: NCI-H23
KM12 = test system: KM12
SNB-19 = test system: SNB-19
786-0 = test system: 786-0
UACC-257 = test system: UACC-257
SR = test system: SR
K562 = test system: K562
HCT-15 = test system: HCT-15
SF-295 = test system: SF-295
RXF 393 = test system: RXF 393
DMS-114 = test system: DMS-114
Malme-3M = test system: Malme-3M
NCI-H226 = test system: NCI-H226
ACHN = test system: ACHN
U-251 = test system: U-251
SN12C = test system: SN12C
OVCAR-5 = test system: OVCAR-5
RPMI-8226 = test system: RPMI-8226
CCRF-CEM = test system: CCRF-CEM
SK-OV-3 = test system: SK-OV-3
A498 = test system: A498
HL-60 = test system: HL-60
HOP-92 = test system: HOP-92

CCOC(=O)[C@H]1Nc2ccc(Cl)cc2[C@H]2CCC[C@@H]12
GI50 (SNB-78): > 100 µM (inactive)
GI50 (OVCAR-8): > 100 µM (inactive)
GI50 (OVCAR-4): 56.9 µM (inactive)
GI50 (DLD-1): > 100 µM (inactive)
GI50 (DMS-273): > 100 µM (inactive)
GI50 (SNB-75): 72.3 µM (inactive)
GI50 (SW-620): > 100 µM (inactive)
GI50 (UO-31): 99.8 µM (inactive)
GI50 (EKVX): 92.3 µM (inactive)
GI50 (HCT-116): > 100 µM (inactive)
GI50 (M14): > 100 µM (inactive)
GI50 (M19-MEL): > 100 µM (inactive)
GI50 (TK-10): > 100 µM (inactive)
GI50 (UACC-62): > 100 µM (inactive)
GI50 (SK-MEL-28): > 100 µM (inactive)
GI50 (HOP-62): > 100 µM (inactive)
GI50 (COLO 205): > 100 µM (inactive)
GI50 (IGROV-1): > 100 µM (inactive)
GI50 (A549): 88.3 µM (inactive)
GI50 (OVCAR-3): 61.4 µM (inactive)
GI50 (HT-29): 36.7 µM (inactive)
GI50 (MOLT-4): > 100 µM (inactive)
GI50 (XF498): > 100 µM (inactive)
GI50 (KM-20L2): > 100 µM (inactive)
GI50 (LOX IMVI): > 100 µM (inactive)
GI50 (HCC 2998): > 100 µM (inactive)
GI50 (SK-MEL-2): > 100 µM (inactive)
GI50 (NCI-H522): 31.5 µM (inactive)
GI50 (HOP-18): 53.2 µM (inactive)
GI50 (LXFL 529): > 100 µM (inactive)
GI50 (CAKI-1): 86.9 µM (inactive)
GI50 (SF-539): > 100 µM (inactive)
GI50 (SK-MEL-5): 71.6 µM (inactive)
GI50 (NCI-H460): > 100 µM (inactive)
GI50 (SF-268): > 100 µM (inactive)
GI50 (NCI-H23): > 100 µM (inactive)
GI50 (KM12): > 100 µM (inactive)
GI50 (SNB-19): > 100 µM (inactive)
GI50 (786-0): > 100 µM (inactive)
GI50 (UACC-257): 22 µM (inactive)
GI50 (SR): > 100 µM (inactive)
GI50 (K562): > 100 µM (inactive)
GI50 (HCT-15): > 100 µM
GI50 (SF-295): 55.3 µM (inactive)
GI50 (RXF 393): 17.9 µM (inactive)
GI50 (DMS-114): 95.3 µM (inactive)
GI50 (Malme-3M): > 100 µM (inactive)
GI50 (NCI-H226): > 100 µM (inactive)
GI50 (ACHN): > 100 µM (inactive)
GI50 (U-251): > 100 µM (inactive)
GI50 (SN12C): > 100 µM (inactive)
GI50 (OVCAR-5): 63.5 µM (inactive)
GI50 (RPMI-8226): > 100 µM (inactive)

CCCOP1(=O)C=CC(Cl)=C(C)C1 (configuration not stated)
GI50 (SNB-78): 53.1 µM (inactive)
GI50 (OVCAR-8): 21.1 µM (inactive)
GI50 (OVCAR-4): 36.6 µM (inactive)
GI50 (DLD-1): 20.6 µM (inactive)
GI50 (SNB-75): 55.8 µM (inactive)
GI50 (SW-620): 19.3 µM (inactive)
GI50 (UO-31): 81.7 µM (inactive)
GI50 (EKVX): > 51.5 µM (inactive)
GI50 (CCRF-CEM): 11.9 µM (inactive)
GI50 (HCT-116): 17.1 µM (inactive)
GI50 (M14): 33 µM (inactive)
GI50 (TK-10): 42.4 µM (inactive)
GI50 (UACC-62): 19.1 µM (inactive)
GI50 (SK-OV-3): > 100 µM (inactive)
GI50 (SK-MEL-28): 19.3 µM (inactive)
GI50 (HOP-62): > 100 µM (inactive)
GI50 (A498): 82.8 µM (inactive)
GI50 (COLO 205): 18.4 µM (inactive)
GI50 (HL-60): 7.53 µM (inactive)
GI50 (IGROV-1): 97.7 µM (inactive)
GI50 (A549): > 54.3 µM (inactive)
GI50 (OVCAR-3): 27.4 µM (inactive)
GI50 (HT-29): 55.3 µM (inactive)
GI50 (MOLT-4): 10.9 µM (inactive)
GI50 (XF498): 23.6 µM (inactive)
GI50 (KM-20L2): 48.1 µM (inactive)
GI50 (LOX IMVI): 32.3 µM (inactive)
GI50 (HCC 2998): > 63.1 µM (inactive)
GI50 (SK-MEL-2): 23.9 µM (inactive)
GI50 (NCI-H522): 15.9 µM (inactive)
GI50 (HOP-18): 50.4 µM (inactive)
GI50 (LXFL 529): 23.7 µM (inactive)
GI50 (CAKI-1): 32.4 µM (inactive)
GI50 (SF-539): > 46 µM (inactive)
GI50 (SK-MEL-5): 45.6 µM (inactive)
GI50 (NCI-H460): 50.7 µM (inactive)
GI50 (SF-268): 46.6 µM (inactive)
GI50 (NCI-H23): 30.8 µM (inactive)
GI50 (KM12): 20.8 µM (inactive)
GI50 (SNB-19): > 70 µM (inactive)
GI50 (786-0): 27.7 µM (inactive)
GI50 (UACC-257): 26.9 µM (inactive)
GI50 (K562): 12 µM (inactive)
GI50 (HCT-15): 16.8 µM
GI50 (SF-295): 45.8 µM (inactive)
GI50 (RXF 393): 16 µM (inactive)
GI50 (DMS-114): 25.4 µM (inactive)
GI50 (HOP-92): 33.1 µM (inactive)
GI50 (Malme-3M): 21 µM (inactive)
GI50 (ACHN): 24.9 µM (inactive)
GI50 (U-251): 40.1 µM (inactive)
GI50 (SN12C): 69.5 µM (inactive)
GI50 (OVCAR-5): 20.7 µM (inactive)
GI50 (RPMI-8226): 22.3 µM (inactive)
